Drawing on article PMC7093396 (Scientific Reports, 2020), this text covers MIC for 20 molecules.

Values after ≈ are worked out from the molar mass of the structure shown.

In one assay the test system is T1, B. bacteriovorus HD100.
T1 construct: HD100
As to the kind of experiment: microbe, parasite or virus in culture. The conditions noted are these: Escherichia coli, HD100, 24 h; co-culture with E. coli BW25113 prey, theoretical MIC at PPR 0.02. Details: species or system B. bacteriovorus HD100 with E. coli BW25113 prey; Predatory growth on E. coli prey, OD600 reduction, Gompertz-fit MIC by linear regression at PPR 0.02. The protocol: Two-fold serial dilutions of antibiotics (Table S6) were made along the rows of 96-well plates (BRANDplates pureGrade^TM S, no. 781662) in 100 µL Ca/HEPES buffer (5.94 g/L HEPES free acid, 0.284 g/L calcium chloride 2·H2O, adjusted to pH 7.6 with NaOH), including controls (no antibiotic present). B. bacteriovorus cultures were diluted by a factor of 25 in Ca/HEPES buffer. B. bacteriovorus two-fold serial dilutions were prepared in a new sterile 96-well plate along the column line (using as diluent a suspension of heat-inactivated B. bacteriovorus), including controls (no viable B. bacteriovorus present). Fifty µL of these dilution series were transferred from each well of the latter plate to the corresponding wells of plates with antibiotic dilution series. Subsequently, 50 µL of an E. coli BW25113 overnight culture grown in YPSC broth was added to each plate well. At this point, which corresponds to time zero, the blank was determined by measuring the OD600 of cell suspensions in a plate reader (TECAN Infinite 200 Pro). Final OD600 measurements were carried out after an incubation of 24 hours at 29 °C under shaking conditions (300 rpm, 3 mm throw). The number of E. coli cells was estimated by reading the OD600 of the overnight culture prior to the beginning of the assay. The number of viable B. bacteriovorus cells was estimated by plating in double layer YPSC agar plates as explained elsewhere. Following an incubation time of three days at 29 °C, the number of B. bacteriovorus cells in the initial inoculation culture was estimated by counting plaque forming units (PFU). Enumeration of B. bacteriovorus by plaques count ensures that only viable cells are counted and, in our experience, is preferable over other methods based on microscopy and/or fluorescence. Pictures of plaques were acquired by the aid of a plaque visualization chamber, specially developed in this study for this purpose (Fig. S9). All absorbance values were subtracted of the related blanks. Then, absorbance values of test samples (B. bacteriovorus co-cultures) were subtracted from the control values (E. coli without B. bacteriovorus) and plotted in graph against the logarithm of antibiotic concentrations. The resulting Δ curve is an indication of B. bacteriovorus growth. Data was expressed as percentage of growth and plotted in a graph of log(inhibitor) vs. response. The minimal inhibitory concentration (MIC) value was defined as the concentration of antibiotic that prevent B. bacteriovorus growth and were calculated by fitting B. bacteriovorus growth inhibition curves with a Gompertz modified equation[15] (using GraphPad Prism 5). […] Direct cell growth measurements of B. bacteriovorus upon prey bacteria can be estimated by reduction of the optical density at 600 nm (OD600) (i.e. the loss of culture turbidity by B. bacteriovorus-induced lysis of prey cells). In this study, we designed a 96-well based method for the determination of antibiotic MICs for B. bacteriovorus. B. bacteriovorus HD100 cells were added to an E. coli culture and the reduction of OD600 measured in absence and presence of different concentrations of antibiotics. Assays were conducted in a solution of Ca/HEPES buffer and the exhausted medium transferred with the E. coli overnight culture and the B. bacteriovorus dilution. Therefore, E. coli cells were in the stationary phase and their growth during the assays was negligible. […] MIC values are dependent on the initial PPR used in the assay, as standard MIC assays are dependent on the initial bacterial concentration. However, B. bacteriovorus numbers and therefore, the initial PPR can be estimated reliably only after the assay by plating in double layer agar plates. The relation between initial PPR and MIC values was then investigated by adding different numbers of B. bacteriovorus cells to the fixed number of E. coli prey cells in parallel replicated experiments (on different rows of the same plate containing replicated antibiotic serial dilutions). […]

The next assay relates to T2, E. coli BW25113.
T2 construct: BW25113
Description: microbe, parasite or virus in culture. Further details: Broth dilution growth at OD600 in Ca/HEPES:YPSC, 29 °C, Gompertz-fit MIC. Particulars: Escherichia coli, BW25113, 24 h; Ca/HEPES:YPSC, 29 °C, non-standard MIC. The protocol: Serial antibiotic dilutions in 100 µL Ca/HEPES were made along the rows of 96-well plates including controls without antibiotic. E. coli BW25113 cells from an overnight culture were washed and re-suspended in Ca/HEPES buffer to a final OD600 of 0.024. Aliquots of 50 µL of this E. coli suspension and 50 µL of a fresh YPSC broth were added to the wells of these plates and the blank measured at 600 nm. Final OD600 measurements were carried out after an incubation of 24 hours at 29 °C under shaking conditions. Data is shown as percentage of growth and plotted in a graph against the logarithm of antibiotic concentration. MIC values were calculated by fitting data with a Gompertz modified equation[15] (using GraphPad Prism 5). […] Antibiotics characterized by a high B. bacteriovorus/E. coli MIC ratio, such as amikacin, kanamycin, gentamicin and aztreonam (Table 1), are of particular interest for a B. bacteriovorus based co-therapy against E. coli infections.

On to `NCC[C@H](O)C(=O)N[C@@H]1C[C@H](N)[C@@H](O[C@H]2O[C@H](CN)[C@@H](O)[C@H](O)[C@H]2O)[C@H](O)[C@H]1O[C@H]1O[C@H](CO)[C@@H](O)[C@H](N)[C@H]1O` [Amikacin], for which the MIC in the assay on B. bacteriovorus HD100 came out at 0.7 ± 0.02 µg/mL (≈ 1.2 µM); in the assay with E. coli BW25113, 0.06 µg/mL (≈ 0.102 µM).
Taken in the same sequence, the figures for `CC1(C)S[C@@H]2[C@H](NC(=O)[C@H](N)c3ccccc3)C(=O)N2[C@H]1C(=O)O` [Ampicillin] were 1.3 ± 0.2 µg/mL (≈ 3.72 µM) and 5.4 µg/mL (≈ 15.5 µM).
On to `C[C@H]1[C@H](NC(=O)/C(=N\OC(C)(C)C(=O)O)c2csc(N)n2)C(=O)N1S(=O)(=O)O` [Aztreonam], for which the MIC in the assay on B. bacteriovorus HD100 stood at 41 ± 4 µg/mL (≈ 94.2 µM); in the assay with E. coli BW25113, 5.7 µg/mL (≈ 13.1 µM).
With `N[C@@H](C(=O)N[C@@H]1C(=O)N2C(C(=O)O)=C(Cl)CS[C@H]12)c1ccccc1` [Cefaclor], the MIC against B. bacteriovorus HD100 amounted to 18 ± 2 µg/mL (≈ 48.9 µM); against E. coli BW25113, 10 µg/mL (≈ 27.2 µM).
`Cc1nnc(SCC2=C(C(=O)O)N3C(=O)[C@@H](NC(=O)Cn4cnnn4)[C@H]3SC2)s1` [Cefazolin]: the figures for the MIC against B. bacteriovorus HD100 and in the assay with E. coli BW25113 were 0.51 ± 0.07 µg/mL (≈ 1.12 µM) and 2 µg/mL (≈ 4.4 µM), respectively.
For the molecule `CCN1CCN(C(=O)N[C@@H](C(=O)N[C@@H]2C(=O)N3C(C(=O)O)=C(CSc4nnnn4C)CS[C@H]23)c2ccc(O)cc2)C(=O)C1=O` [Cefoperazone], the MIC in the assay with B. bacteriovorus HD100 stood at 1.3 ± 0.3 µg/mL (≈ 2.01 µM); in the assay on E. coli BW25113, 0.6 µg/mL (≈ 0.929 µM).
For the molecule `CC(C)(O/N=C(\C(=O)N[C@@H]1C(=O)N2C(C(=O)[O-])=C(C[n+]3ccccc3)CS[C@H]12)c1csc(N)n1)C(=O)O` [Ceftazidime], the values for the MIC against B. bacteriovorus HD100 and against E. coli BW25113 were 7.8 ± 0.4 µg/mL (≈ 14.3 µM) and 19 µg/mL (≈ 34.8 µM), respectively.
Taken in the same sequence, the figures for `O=C(N[C@H](CO)[C@H](O)c1ccc([N+](=O)[O-])cc1)C(Cl)Cl` [Chloramphenicol] were 0.16 µg/mL (≈ 0.495 µM) and 10 µg/mL (≈ 30.9 µM).
Taken in the same sequence, the figures for `O=C(O)c1cn(C2CC2)c2cc(N3CCNCC3)c(F)cc2c1=O` [Ciprofloxacin] were 0.31 ± 0.04 µg/mL (≈ 0.936 µM) and 0.13 µg/mL (≈ 0.392 µM).
On to `CNC(C)[C@@H]1CC[C@@H](N)[C@@H](O[C@H]2[C@H](O)[C@@H](O[C@H]3OC[C@](C)(O)[C@H](NC)[C@H]3O)[C@H](N)C[C@@H]2N)O1` (stereo partly shown) [Gentamicin], for which the MIC in the assay with B. bacteriovorus HD100 was found to be 0.06 µg/mL (≈ 0.126 µM); against E. coli BW25113 it was 0.0084 µg/mL (≈ 0.0176 µM).
In the case of `NC[C@H]1O[C@H](O[C@H]2[C@H](O)[C@@H](O[C@H]3O[C@H](CO)[C@@H](O)[C@H](N)[C@H]3O)[C@H](N)C[C@@H]2N)[C@H](O)[C@@H](O)[C@@H]1O` [Kanamycin], the MIC with B. bacteriovorus HD100 came to 0.69 ± 0.06 µg/mL (≈ 1.42 µM); in the assay with E. coli BW25113, 0.081 µg/mL (≈ 0.167 µM).
For `C[C@H]1COc2c(N3CCN(C)CC3)c(F)cc3c(=O)c(C(=O)O)cn1c23` [Levofloxacin], the values for the MIC in the assay with B. bacteriovorus HD100 and in the assay on E. coli BW25113 were 0.23 ± 0.02 µg/mL (≈ 0.636 µM) and 0.064 µg/mL (≈ 0.177 µM), respectively.
In the assay on B. bacteriovorus HD100, `CCC[C@@H]1C[C@@H](C(=O)N[C@@H]([C@H]2O[C@H](SC)[C@H](O)[C@@H](O)[C@H]2O)[C@@H](C)O)N(C)C1` [Lincomycin] showed an MIC of 7.9 ± 0.9 µg/mL (≈ 19.4 µM).
As to `C[C@@H](O)[C@H]1C(=O)N2C(C(=O)O)=C(S[C@@H]3CN[C@H](C(=O)N(C)C)C3)[C@H](C)[C@H]12` [Meropenem], the values for the MIC in the assay with B. bacteriovorus HD100 and against E. coli BW25113 were 0.42 ± 0.06 µg/mL (≈ 1.1 µM) and 0.14 µg/mL (≈ 0.365 µM), respectively.
Take `CC1(C)S[C@@H]2[C@H](NC(=O)Cc3ccccc3)C(=O)N2[C@H]1C(=O)O` [Penicillin G]: the figures for the MIC in the assay with B. bacteriovorus HD100 and with E. coli BW25113 were 3.4 ± 0.5 µg/mL (≈ 10.2 µM) and 19 µg/mL (≈ 56.8 µM), respectively.
For the molecule `CCN1CCN(C(=O)N[C@@H](C(=O)N[C@@H]2C(=O)N3[C@@H]2SC(C)(C)[C@@H]3C(=O)O)c2ccccc2)C(=O)C1=O` [Piperacillin], the MIC came to 2.5 ± 0.5 µg/mL (≈ 4.83 µM) in the assay on B. bacteriovorus HD100 and 122 µg/mL (≈ 236 µM) with E. coli BW25113.
The molecule `COc1cc(Cc2cnc(N)nc2N)cc(OC)c1OC` [TMP, trimethoprim] had an MIC in the assay on B. bacteriovorus HD100 of 223 ± 24 µg/mL (≈ 768 µM).
On to `CN(C)[C@@H]1C(O)=C(C(N)=O)C(=O)[C@@]2(O)C(O)=C3C(=O)c4c(O)cccc4[C@@](C)(O)[C@H]3C[C@@H]12` [Tetracycline], for which the MIC came out at 1.7 ± 0.2 µg/mL (≈ 3.83 µM) in the assay on B. bacteriovorus HD100 and 4.8 µg/mL (≈ 10.8 µM) against E. coli BW25113.
In the case of `CN(C)c1cc(NC(=O)CNC(C)(C)C)c(O)c2c1C[C@H]1C[C@H]3[C@H](N(C)C)C(O)=C(C(N)=O)C(=O)[C@@]3(O)C(O)=C1C2=O` [Tigecycline], the MIC came out at 0.59 ± 0.01 µg/mL (≈ 1.01 µM) against B. bacteriovorus HD100 and 2.3 µg/mL (≈ 3.93 µM) in the assay with E. coli BW25113.
In the assay on B. bacteriovorus HD100, `CN[C@H](CC(C)C)C(=O)N[C@H]1C(=O)N[C@@H](CC(N)=O)C(=O)N[C@H]2C(=O)N[C@H]3C(=O)N[C@H](C(=O)N[C@H](C(=O)O)c4cc(O)cc(O)c4-c4cc3ccc4O)[C@H](O)c3ccc(c(Cl)c3)Oc3cc2cc(c3O[C@@H]2O[C@H](CO)[C@@H](O)[C@H](O)[C@H]2O[C@H]2C[C@](C)(N)[C@H](O)[C@H](C)O2)Oc2ccc(cc2Cl)[C@H]1O` [Vancomycin] came in with an MIC of 16 ± 1 µg/mL (≈ 11 µM).
